The results in this text go back to PubChem BioAssay (NCI).

Among the test systems are RXF 393 renal; OVCAR-8 ovarian; SK-OV-3 ovarian; HCT-15 colon; EKVX NSCLC; 786-0 renal; MDA-MB-231 breast; SK-MEL-5 melanoma; NCI-H522 lung; U251 CNS; UACC-257 melanoma.
Assay in all cases: NCI-60 cell line screen, 48 h

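All cell lines were grown in 96-well plates and treated with compound for 48 hours. TGI: total growth inhibition.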

For `O=C(O)CCSCc1ccccc1`, the TGI in the test with RXF 393 renal, in the test on OVCAR-8 ovarian, in the test with SK-OV-3 ovarian, in the test on HCT-15 colon, with EKVX NSCLC and with 786-0 renal was > 100 µM each time. The TGI in the test with MDA-MB-231 breast, with SK-MEL-5 melanoma, with NCI-H522 lung, with U251 CNS and in the test on UACC-257 melanoma was > 100 µM each time.
For `COc1cc(NCCC2CCCCN2)c2ncccc2c1` (configuration not stated), the TGI with RXF 393 renal is 77 µM; in the test with OVCAR-8 ovarian it was > 100 µM; in the test with SK-OV-3 ovarian, > 100 µM; in the test on HCT-15 colon, > 100 µM; with EKVX NSCLC, > 100 µM; with 786-0 renal, > 100 µM. The TGI is > 92.1 µM with MDA-MB-231 breast; > 55.4 µM with SK-MEL-5 melanoma; > 100 µM in the test with NCI-H522 lung; > 100 µM with U251 CNS; 41.1 µM with UACC-257 melanoma.
`C/C=C(\C)C(O)C(C)C(O)C/C=C(C)/C=C(\C)C/C(C)=C/C/C=C(\C)C(O)C(C)c1ccc(CCC)c(=O)o1` (configuration not stated): the TGI was 77.3 µM in the test with RXF 393 renal; 48.7 µM in the test with OVCAR-8 ovarian; 94.5 µM in the test with SK-OV-3 ovarian; 15.3 µM in the test on HCT-15 colon; > 100 µM in the test on EKVX NSCLC; 55.7 µM in the test with 786-0 renal. Besides, the TGI was determined as 26.4 µM in the test with MDA-MB-231 breast; 14.3 µM with SK-MEL-5 melanoma; 17.2 µM with NCI-H522 lung; 24.1 µM in the test on U251 CNS; 15.2 µM in the test on UACC-257 melanoma.
In the case of `CC(=O)OCC1OC(n2c(-c3ccccc3)c(C(C)=O)c(-c3cccc4ccccc34)c(C#N)c2=S)C(OC(C)=O)C(OC(C)=O)C1OC(C)=O` (configuration not stated), the TGI in the test on RXF 393 renal, with OVCAR-8 ovarian, with SK-OV-3 ovarian, in the test with HCT-15 colon, in the test with EKVX NSCLC and in the test with 786-0 renal was > 100 µM throughout. The TGI in the test with MDA-MB-231 breast, in the test with SK-MEL-5 melanoma, in the test with NCI-H522 lung, in the test with U251 CNS and in the test on UACC-257 melanoma was > 100 µM throughout.
In the case of `N#CC(Cc1ccccc1)N(CCC1=CCCCC1)Cc1ccccc1` (configuration not stated), the TGI in the test with RXF 393 renal, with OVCAR-8 ovarian, in the test on SK-OV-3 ovarian, in the test with HCT-15 colon, with EKVX NSCLC and in the test on 786-0 renal was > 100 µM in each case. The TGI is > 100 µM in the test with MDA-MB-231 breast; 51.9 µM in the test on SK-MEL-5 melanoma; 68 µM in the test on NCI-H522 lung; > 100 µM in the test on U251 CNS; > 100 µM in the test on UACC-257 melanoma.
Consider `CN(C)C(c1ccccc1)C1COC2Cc3ccccc3C1O2` (configuration not stated), for which the TGI in the test on RXF 393 renal, in the test with OVCAR-8 ovarian, in the test on SK-OV-3 ovarian, in the test on HCT-15 colon, with EKVX NSCLC and in the test on 786-0 renal was > 100 µM in each case. In addition, the TGI in the test on MDA-MB-231 breast, with SK-MEL-5 melanoma, in the test on NCI-H522 lung, with U251 CNS and in the test on UACC-257 melanoma was > 100 µM throughout.
`Cc1cccc2c1c(=O)c1c(O)c3c(cc1n2C)OC(C)(C)C=C3`: the TGI with RXF 393 renal, in the test with OVCAR-8 ovarian, with SK-OV-3 ovarian, with HCT-15 colon, in the test with EKVX NSCLC and in the test on 786-0 renal was > 10 µM each time. Also, the TGI with MDA-MB-231 breast, with SK-MEL-5 melanoma, in the test on NCI-H522 lung, in the test with U251 CNS and with UACC-257 melanoma was > 10 µM each time.
